We go through 14 compounds from PubChem BioAssay (NCI).

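In this assay, cells in 96-well plates receive the compound at five concentrations for 48 hours. Endpoints are linearly interpolated between the surrounding concentrations. Here, GI50 denotes the concentration required for 50% inhibition of growth. At the TGI there is no net growth.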

Among the test systems are HOP-92 NSCLC; U251 CNS; SK-MEL-28 melanoma; PC-3 prostate; MOLT-4 leukemia; TK-10 renal; HCT-116 colon; KM12 colon; NCI-H460 lung; SNB-19 CNS.
What all share (assay): NCI tumour cell line growth inhibition, 48 h

For the compound `CCN(CC)CCCCNc1c2ccc(Cl)cc2nc2ccc(OC)cc12`, the GI50 was 0.271 µM with HOP-92 NSCLC; 0.45 µM in the assay on U251 CNS; 1.71 µM with SK-MEL-28 melanoma; 0.482 µM in the assay with PC-3 prostate; 0.306 µM with MOLT-4 leukemia; 0.925 µM in the assay on TK-10 renal. The GI50 in the assay on HCT-116 colon is 0.301 µM; in the assay on KM12 colon it was 0.456 µM; with NCI-H460 lung, 0.287 µM. The TGI in the assay on HOP-92 NSCLC worked out at 1.87 µM; in the assay with U251 CNS, 2.16 µM; with SK-MEL-28 melanoma it was 3.2 µM; in the assay on PC-3 prostate it was 2.74 µM; in the assay with MOLT-4 leukemia it was 2.79 µM; with TK-10 renal, 4.59 µM. Further, the TGI in the assay with HCT-116 colon worked out at 1.94 µM; in the assay on KM12 colon it was 2.61 µM.

With `O=c1c2ccc(Cl)cc2oc2c(CNc3ccc(S(=O)(=O)Nc4ncccn4)cc3)cccc12`, the TGI in the assay with HOP-92 NSCLC, in the assay on U251 CNS, with SK-MEL-28 melanoma, in the assay with PC-3 prostate, in the assay on MOLT-4 leukemia and in the assay on TK-10 renal was > 100 µM in each case. The TGI in the assay with SNB-19 CNS, in the assay on HCT-116 colon and with KM12 colon was > 100 µM throughout.

For `NCCCCNCCCN1CCOC1=O`, the TGI in the assay with U251 CNS, in the assay on SK-MEL-28 melanoma, with PC-3 prostate, in the assay with MOLT-4 leukemia, with TK-10 renal and in the assay on SNB-19 CNS was > 100 µM each time. Besides, the TGI in the assay with HCT-116 colon, with KM12 colon and in the assay on NCI-H460 lung was > 100 µM throughout.

With `CC(C)(C)c1ccnc(N=C2N=C(Nc3cc(C(C)(C)C)ccn3)c3ccccc32)c1`, the TGI in the assay with HOP-92 NSCLC is 47.1 µM; in the assay with U251 CNS, 51 µM; in the assay with SK-MEL-28 melanoma it was 86.8 µM; with MOLT-4 leukemia, 85.8 µM; in the assay with TK-10 renal it was 46.1 µM; with SNB-19 CNS it was 44.4 µM. Further, the results for the TGI with HCT-116 colon, in the assay with KM12 colon and in the assay on NCI-H460 lung were 30.8 µM, > 100 µM and > 100 µM, respectively.

`C=C1C[C@@H]2O[C@H]3[C@H]4[C@@H](C[C@@H](C)[C@@H](OC(C)=O)[C@H]42)[C@@H](C)CO[C@@]3(C)[C@H](OC(=O)CCCCCCC)CC1=O`: the TGI in the assay with U251 CNS is 32.5 µM; in the assay with SK-MEL-28 melanoma, 28.7 µM; with PC-3 prostate, 22.5 µM; in the assay with MOLT-4 leukemia it was 40.8 µM; with TK-10 renal it was 32.7 µM; with SNB-19 CNS, > 100 µM. The TGI was determined as 32 µM in the assay on HCT-116 colon, 26.2 µM with KM12 colon and 24.2 µM with NCI-H460 lung.

As for `CN(C)CCCNC(=O)N/N=C/c1ccccc1`, the TGI in the assay with U251 CNS, with SK-MEL-28 melanoma, in the assay with MOLT-4 leukemia, in the assay on TK-10 renal, in the assay with SNB-19 CNS and with HCT-116 colon was > 100 µM each time. Also, the TGI with KM12 colon and in the assay with NCI-H460 lung was > 100 µM each time.

Consider `Cc1cc(-c2cc(C(C)(C)C)c(O)c(C(C)(C)C)c2)c(C)cc1-c1cc(C(C)(C)C)c(O)c(C(C)(C)C)c1`, for which the TGI with HOP-92 NSCLC was 38.2 µM; with U251 CNS it was > 100 µM; in the assay with SK-MEL-28 melanoma, > 100 µM; in the assay with PC-3 prostate, > 100 µM; in the assay with MOLT-4 leukemia it was > 100 µM; in the assay on TK-10 renal, > 100 µM. For the same compound, the TGI in the assay with SNB-19 CNS, in the assay on HCT-116 colon and in the assay with KM12 colon was > 100 µM each time.

On to `O=C(NC(C(F)(F)F)(C(F)(F)F)P(=O)(Cc1ccccc1)Cc1ccccc1)C(C(F)(F)F)C(F)(F)F`, for which the TGI in the assay with U251 CNS stood at 41.5 µM; in the assay on SK-MEL-28 melanoma, 53.1 µM; in the assay on PC-3 prostate it was 49 µM; with MOLT-4 leukemia it was 55.1 µM; in the assay with TK-10 renal, 39.1 µM; in the assay on SNB-19 CNS it was 59.4 µM. Also, the values for the TGI with HCT-116 colon, with KM12 colon and in the assay on NCI-H460 lung were 33.1 µM, 37.7 µM and 78.3 µM, respectively.

Take `CN(C)/N=N/c1nc2c(c(=O)n(C)c(=O)n2C)n1CC1CO1` (stereo unspecified): the TGI in the assay on U251 CNS is 35.2 µM; in the assay with SK-MEL-28 melanoma, 59.7 µM; in the assay on PC-3 prostate, 56.4 µM; in the assay on MOLT-4 leukemia, > 100 µM; in the assay with TK-10 renal, 37.7 µM; in the assay on SNB-19 CNS it was 78.2 µM. Further, the TGI in the assay on HCT-116 colon was determined as 24 µM; in the assay on KM12 colon, 50.7 µM; in the assay with NCI-H460 lung, 21.7 µM.

With `CC(=O)/C(=N\Nc1ccc(Cl)cc1)C(C)=Nc1ccc(C)cc1`, the TGI was 37.4 µM in the assay on HOP-92 NSCLC; > 100 µM in the assay on U251 CNS; > 100 µM in the assay with SK-MEL-28 melanoma; > 100 µM in the assay on PC-3 prostate; > 100 µM in the assay on MOLT-4 leukemia; > 100 µM with TK-10 renal. Besides, the TGI in the assay on SNB-19 CNS, with HCT-116 colon and with KM12 colon was > 100 µM throughout.

With `COc1ccc(C2C=C(c3ccc(C)cc3)N(c3ccc(OC)cc3[N+](=O)[O-])C3C(=O)OC(=O)C23)c(OC)c1` (stereo unspecified), the TGI in the assay on U251 CNS was > 100 µM; with SK-MEL-28 melanoma it was > 100 µM; in the assay with PC-3 prostate, > 100 µM; with MOLT-4 leukemia, 91.6 µM; with TK-10 renal, > 100 µM; in the assay on SNB-19 CNS it was > 100 µM. In addition, the TGI with HCT-116 colon was > 100 µM; with KM12 colon it was 22.7 µM; with NCI-H460 lung it was > 100 µM.

For `CNC(=S)N1CCN(C(C)=O)C1=S`, the TGI in the assay with HOP-92 NSCLC was > 100 µM; in the assay with U251 CNS, 17.2 µM; in the assay with SK-MEL-28 melanoma it was > 100 µM; in the assay with MOLT-4 leukemia, > 100 µM; in the assay with TK-10 renal it was > 100 µM; in the assay with HCT-116 colon it was > 100 µM. Moreover, the TGI with KM12 colon and with NCI-H460 lung was > 100 µM in each case.

In the case of `C/C(=C\CSCC(N)C(=O)O)CC/C=C(\C)CNc1ccccc1` (stereo unspecified), the TGI in the assay with U251 CNS, in the assay with SK-MEL-28 melanoma, with PC-3 prostate, in the assay on MOLT-4 leukemia, with TK-10 renal and in the assay with SNB-19 CNS was > 100 µM each time. Besides, the TGI with HCT-116 colon, in the assay with KM12 colon and with NCI-H460 lung was > 100 µM in each case.

`COc1cc2c(c(OC)c1)[C@H](C)N(Cc1ccccc1)C(C)C2` (stereo partly specified): the TGI in the assay on SK-MEL-28 melanoma, with PC-3 prostate, with MOLT-4 leukemia, with TK-10 renal, in the assay on SNB-19 CNS and with HCT-116 colon was > 100 µM in each case. For the same compound, the TGI with KM12 colon and with NCI-H460 lung was > 100 µM in each case.
